Test results reported in patent US7968577B2 (Bristol-Myers Squibb Company, priority 2006, dated 2011).

Tested on: AP-1 induced transcriptional activity
Test: Cellular Transrepressional Assay: AP-1 luciferase reporter in PMA-activated A549 cells
Assay type: cell-based
Conditions: for Emax: A549, 7 h, read-out: AP-1 Max % inh (Cellular Transrepression Assay)
Protocol: Cellular Transrepressional Assay
To measure the ability of test molecules to inhibit AP-1 induced transcriptional activity we utilized an A549 cell which was stably transfected with a plasmid containing 7× AP-1 DNA binding sites (pAP-1-Luc plasmid, Stratagene Co. La Jolla, Calif.) followed by the gene for luciferase. Cells were activated with 10 ng/ml of […] (PMA) plus or minus test molecules for 7 hours. After 7 hours a luciferase reagent was added to measure luciferase enzymatic activity in the cell. After a 10 minute incubation of luciferase reagent with cells, luminescence was measured in a TopCount luminescence counter. Repression of AP-1 activity was calculated as the percentage decrease in the signal induced by PMA alone. Test molecules were analyzed in the concentration range from 0.1 nM to 40 μM. EC50s were determined by using standard curve fitting methods such as Excel fit (Microsoft Co.).

[1] = Homo sapiens, maximum inhibition, Cellular Transrepression Assay
[2] = Homo sapiens, A549, Cellular Transrepression Assay

| Structure (SMILES) | Emax [1] [%] | EC50 [2] [nM] | EC50 (Cellular Transrepression Assay) [nM] | AP-1 Max % inh (Cellular Transrepression Assay) (maximum inhibition, Cellular Transrepression Assay) [%] |
| --- | --- | --- | --- | --- |
| Cc1csc(NC(=O)C(C)(C)C(c2ccccc2)c2cccc(O)c2)n1 (stereo not shown) [Example 198, 3-(3-hydroxyphenyl)-2,2-dimethyl-N-(4-methyl-1,3-thiazol-2-yl)-3-phenylpropanamide] | 25.8 |  |  |  |
| Cc1cnc(NC(=O)C(C)(C)C(c2ccccc2)c2cccc(O)c2)s1 (stereo not shown) [Example 199, 3-(3-hydroxyphenyl)-2,2-dimethyl-N-(5-methyl-1,3-thiazol-2-yl)-3-phenylpropanamide] | 31.1 |  |  |  |
| CC(C)(C(=O)Nc1nc(CCc2ccccc2)cs1)C(c1ccccc1)c1cccc(O)c1 (stereo not shown) [Example 203, 3-(3-hydroxyphenyl)-2,2-dimethyl-3-phenyl-N-(4-(2-phenylethyl)-1,3-thiazol-2-yl)propanamide] | 35.1 |  |  |  |
| CCOC(=O)c1sc(NC(=O)C(C)(C)C(c2ccccc2)c2cccc(O)c2)nc1C (stereo not shown) [Example 206, ethyl 2-((3-(3-hydroxyphenyl)-2,2-dimethyl-3-phenylpropanoyl)amino)-4-methyl-1,3-thiazole-5-carboxylate] | 37.7 |  |  |  |
| CC(C)(C(=O)Nc1nccs1)C(c1ccccc1)c1ccc(O)cc1 (stereo not shown) [Example 209, 3-(4-hydroxyphenyl)-2,2-dimethyl-3-phenyl-N-1,3-thiazol-2-ylpropanamide] | 46.9 | 86.5 |  |  |
| CC(C)(C(=O)Nc1nc(-c2cccc3ccccc23)cs1)C(c1ccccc1)c1ccc(O)cc1 (stereo not shown) [Example 217, 3-(4-hydroxyphenyl)-2,2-dimethyl-N-(4-(1-naphthalenyl)-1,3-thiazol-2-yl)-3-phenylpropanamide] | 35 | 516 |  |  |
| CCOC(=O)c1sc(NC(=O)C(C)(C)C(c2ccccc2)c2ccc(O)cc2)nc1C (stereo not shown) [Example 218, ethyl 2-((3-(4-hydroxyphenyl)-2,2-dimethyl-3-phenylpropanoyl)amino)-4-methyl-1,3-thiazole-5-carboxylate] | 38 |  |  |  |
| CC(C)(C(=O)Nc1nc2ccc(Cl)cc2s1)C(c1ccccc1)c1ccc(O)cc1 (stereo not shown) [Example 220, N-(6-chloro-1,3-benzothiazol-2-yl)-3-(4-hydroxyphenyl)-2,2-dimethyl-3-phenylpropanamide] | 36.2 |  |  |  |
| CC(C)(C(=O)Nc1nc(Cc2ccc(-c3ccncc3)cc2)cs1)C(c1ccccc1)c1ccc(N2CCOCC2)cc1 (stereo not shown) [Example 223, 2,2-dimethyl-3-(4-(4-morpholinyl)phenyl)-3-phenyl-N-(4-((4-(4-pyridinyl)phenyl)methyl)-1,3-thiazol-2-yl)propanamide] | 70.8 | 88.1 |  |  |
| CC(C)(C(=O)Nc1nccs1)C(c1ccccc1)c1ccc(N2CCOCC2)cc1 (stereo not shown) [Example 224, 2,2-dimethyl-3-(4-(4-morpholinyl)phenyl)-3-phenyl-N-1,3-thiazol-2-ylpropanamide] | 33.8 | 161 |  |  |
| CC(C)(C(=O)Nc1nncs1)C(c1ccccc1)c1ccc(N2CCOCC2)cc1 (stereo not shown) [Example 225, 2,2-dimethyl-3-(4-(4-morpholinyl)phenyl)-3-phenyl-N-1,3,4-thiadiazol-2-ylpropanamide] | 34.3 |  | 114 |  |
| Cc1ccc(C(c2ccc(N3CCOCC3)cc2)C(C)(C)C(=O)Nc2nccs2)cc1 (stereo not shown) [Example 227, 2,2-dimethyl-3-(4-methylphenyl)-3-(4-(4-morpholinyl)phenyl)-N-1,3-thiazol-2-ylpropanamide] | 43.7 | 666 |  |  |
| CC(C)(C(=O)Nc1nccs1)C(c1ccc(N2CCOCC2)cc1)c1cccc(F)c1 (stereo not shown) [Example 228, 3-(3-fluorophenyl)-2,2-dimethyl-3-(4-(4-morpholinyl)phenyl)-N-1,3-thiazol-2-ylpropanamide] | 36.9 | 33.5 |  |  |
| CC(C)(C(=O)Nc1nncs1)C(c1ccc(N2CCOCC2)cc1)c1cccc(F)c1 (stereo not shown) [Example 229, 3-(3-fluorophenyl)-2,2-dimethyl-3-(4-(4-morpholinyl)phenyl)-N-1,3,4-thiadiazol-2-ylpropanamide] | 44.2 | 18.6 |  |  |
| Cc1cccc(C(c2ccc(N3CCOCC3)cc2)C(C)(C)C(=O)Nc2nccs2)c1 (stereo not shown) [Example 234, 2,2-dimethyl-3-(3-methylphenyl)-3-(4-(4-morpholinyl)phenyl)-N-1,3-thiazol-2-ylpropanamide] | 39 | 573 |  |  |
| CC(C)(C(=O)Nc1nncs1)C(c1ccccc1)c1ccc(N2CCCCC2)cc1 (stereo not shown) [Example 236, 2,2-dimethyl-3-phenyl-3-(4-(1-piperidinyl)phenyl)-N-1,3,4-thiadiazol-2-ylpropanamide] | 38.5 | 151 |  |  |

| Structure (SMILES) | Emax [1] [%] | EC50 [2] [nM] | EC50 (Cellular Transrepression Assay) [nM] | AP-1 Max % inh (Cellular Transrepression Assay) (maximum inhibition, Cellular Transrepression Assay) [%] |
| --- | --- | --- | --- | --- |
| CC(C)(C(=O)Nc1nncs1)C(c1ccccc1)c1ccc(N2CCOCC2)cc1 (stereo not shown) [Example 260, 2,2-dimethyl-3-(4-(4-morpholinyl)phenyl)-3-phenyl-N-1,3,4-thiadiazol-2-ylpropanamide] |  |  | 4.06 | 35.64 |
| CCOC(=O)c1csc(NC(=O)C(C)(C)[C@H](c2ccccc2)c2ccc(OC)cc2)n1 [Example 264, ethyl 2-((2,2-dimethyl-3-(4-(methyloxy)phenyl)-3-phenylpropanoyl)amino)-1,3-thiazole-4-carboxylate] | 58.6 | 772 |  |  |
| COc1ccc([C@@H](c2ccccc2)C(C)(C)C(=O)Nc2nncs2)cc1 [Example 276, (3R)-2,2-dimethyl-3-(4-(methyloxy)phenyl)-3-phenyl-N-1,3,4-thiadiazol-2-ylpropanamide] | 34 | 190 |  |  |
| COc1ccc(Cc2csc(NC(=O)C(C)(C)C(c3ccccc3)c3ccc(OC)cc3)n2)cc1 (stereo not shown) [Example 288, 2,2-dimethyl-3-(4-(methyloxy)phenyl)-N-(4-((4-(methyloxy)phenyl)methyl)-1,3-thiazol-2-yl)-3-phenylpropanamide] | 62.2 | 216 |  |  |
| COc1ccc(C(c2ccccc2)C(C)(C)C(=O)Nc2nc(Cc3ccc(-c4ccncc4)cc3)cs2)cc1 (stereo not shown) [Example 289, 2,2-dimethyl-3-(4-(methyloxy)phenyl)-3-phenyl-N-(4-((4-(4-pyridinyl)phenyl)methyl)-1,3-thiazol-2-yl)propanamide] | 71.6 | 18.5 |  |  |
| COc1ccc(Cc2csc(NC(=O)C(C)(C)C(c3ccccc3)c3ccccc3)n2)cc1 [Example 297, 2,2-dimethyl-N-(4-((4-(methyloxy)phenyl)methyl)-1,3-thiazol-2-yl)-3,3-diphenylpropanamide] | 77.3 | 262 |  |  |
| COc1ccc(Cc2csc(NC(=O)C(C)(C)C(c3ccccc3)c3cccc(OC)c3)n2)cc1 (stereo not shown) [Example 298, 2,2-dimethyl-3-(3-(methyloxy)phenyl)-N-(4-((4-(methyloxy)phenyl)methyl)-1,3-thiazol-2-yl)-3-phenylpropanamide] | 78.7 | 417 |  |  |
| CC(C)(C(=O)Nc1nc(Cc2ccc(-c3ccncc3)cc2)cs1)C(c1ccccc1)c1ccccc1 [Example 299, 2,2-dimethyl-3,3-diphenyl-N-(4-((4-(4-pyridinyl)phenyl)methyl)-1,3-thiazol-2-yl)propanamide] | 69.3 | 13.3 |  |  |
| CC(C)(C(=O)Nc1nc(Cc2ccc(-c3ccncc3)cc2)cs1)C(c1ccccc1)c1ccc(Br)cc1 (stereo not shown) [Example 300, 3-(4-bromophenyl)-2,2-dimethyl-3-phenyl-N-(4-((4-(4-pyridinyl)phenyl)methyl)-1,3-thiazol-2-yl)propanamide] | 73.7 | 9.97 |  |  |
| CC(C)(C(=O)Nc1nc(Cc2ccc(-c3ccncc3)cc2)cs1)C(c1ccccc1)c1ccc(Cl)cc1 (stereo not shown) [Example 301, 3-(4-chlorophenyl)-2,2-dimethyl-3-phenyl-N-(4-((4-(4-pyridinyl)phenyl)methyl)-1,3-thiazol-2-yl)propanamide] | 73.7 | 10.2 |  |  |
| CC(C)(C(=O)Nc1nc(Cc2ccc(-c3ccncc3)cc2)cs1)C(c1ccccc1)c1ccc(F)cc1 (stereo not shown) [Example 302, 3-(4-fluorophenyl)-2,2-dimethyl-3-phenyl-N-(4-((4-(4-pyridinyl)phenyl)methyl)-1,3-thiazol-2-yl)propanamide] | 76.8 | 33.3 |  |  |
| CC(C)(C)c1ccc(C(c2ccccc2)C(C)(C)C(=O)Nc2nc(Cc3ccc(-c4ccncc4)cc3)cs2)cc1 (stereo not shown) [Example 303, 3-(4-(1,1-dimethylethyl)phenyl)-2,2-dimethyl-3-phenyl-N-(4-((4-(4-pyridinyl)phenyl)methyl)-1,3-thiazol-2-yl)propanamide] | 75.7 | 16.6 |  |  |
| COc1ccc(C(c2ccc(OC)cc2)C(C)(C)C(=O)Nc2nc(Cc3ccc(-c4ccncc4)cc3)cs2)cc1 [Example 304, 2,2-dimethyl-3,3-bis(4-(methyloxy)phenyl)-N-(4-((4-(4-pyridinyl)phenyl)methyl)-1,3-thiazol-2-yl)propanamide] | 74.5 | 19.9 |  |  |
| COc1cccc(C(c2ccccc2)C(C)(C)C(=O)Nc2nc(Cc3ccc(-c4ccncc4)cc3)cs2)c1 (stereo not shown) [Example 305, 2,2-dimethyl-3-(3-(methyloxy)phenyl)-3-phenyl-N-(4-((4-(4-pyridinyl)phenyl)methyl)-1,3-thiazol-2-yl)propanamide] | 84.2 | 22.5 |  |  |
| CC(C)(C(=O)Nc1nccs1)[C@@H](c1ccccc1)c1ccc(O)cc1 [Example 325, (3S)-3-(4-hydroxyphenyl)-2,2-dimethyl-3-phenyl-N-1,3-thiazol-2-ylpropanamide] | 57.8 | 53.9 |  |  |
| CC(C)(C(=O)NC1CCCC1)[C@@H](c1ccccc1)c1ccc(O)cc1 [Example 335, (3S)-N-cyclopentyl-3-(4-hydroxyphenyl)-2,2-dimethyl-3-phenylpropanamide] | 21.2 | 9.32 |  |  |
